One experiment concerns cabbage. To be noted: cited from earlier work.
For a further experiment, the system named is rice. To be noted: depending on the plant breeding; cited from earlier work.
For another experiment, the system named is radish. To be noted: cited from earlier work.
The subject of the next experiment is red pepper. The experiment can be described thus: Effect on growth of red pepper. Type of experiment: in vivo. The following applies: 100 ppm. The protocol: [Worded in the source for another target; used here, by the source, with some conditions changed.] (§1) Then, the treated seeds were dried for 24 hrs at 25° C. Round pots of 25 cm in diameter (7 L capacity) were filled with soil for horticulture, and 50 pots (2 seeds per pot) were sown. After 60 days at about 25° C., the crop growth was evaluated by rate of emergence and early plant height. […] As a control, bean seeds which were not immersed in the polyprenol preparation were used.

The next experiment deals with bean. Nature of the experiment: Effect on growth of bean. The class given is in vivo. The procedure: 100 g of bean seeds were immersed in a 100 ml solution containing the polyprenol preparation formulated in Example 3 at a concentration of 100 ppm, for 1 hr. Then, the treated seeds were dried for 24 hrs at 25° C. Round pots of 25 cm in diameter (7 L capacity) were filled with soil for horticulture, and 50 pots (2 seeds per pot) were sown. After 60 days at about 25° C., the crop growth was evaluated by rate of emergence and early plant height. The test was repeated 3 times, and the average values are represented in Table 7. As a control, bean seeds which were not immersed in the polyprenol preparation were used.
In example 4, the compound having chloride group instead of hydroxyl group can be synthesized. The compound was evaluated on effect on crop growth. 100 g of bean seeds were immersed in a 100 ml solution containing the polyprenol preparation formulated in Example 4 at a concentration of 100 ppm, for 1 hr. Then, the treated seeds were dried for 24 hrs. Round pots of 25 cm in diameter (7 L capacity) were filled with soil for horticulture, and 50 pots (2 seeds per pot) were sown. After 60 days, the crop growth was evaluated. The test was repeated 3 times, and the average values are represented in Table 14. As a control, bean seeds which were not immersed in the polyprenol preparation were used.
100 g of bean seeds were immersed in a 100 ml solution containing the polyprenol preparation formulated in Example 5 at a concentration of 100 ppm, for 1 hr. Then, the treated seeds were dried for 24 hrs. Round pots of 25 cm in diameter (7 L capacity) were filled with soil for horticulture, and 50 pots (2 seeds per pot) were sown. After 60 days, the crop growth was evaluated. The test was repeated 3 times, and the average values are represented in Table 16. As a control, bean seeds which were not immersed in the polyprenol preparation were used.

In a further experiment the test system is corn. Nature of the experiment: Effect on growth of corn. Type of experiment: in vivo. To be noted: for Early plant height / Fresh weight / Tiller number: corn seeds immersed 2 hrs at 100 ppm, after 60 days; for Rate of increase of early plant height / Rate of increase of fresh weight / Rate of increase of tiller number: corn, 100 ppm, vs control. The procedure: [Worded in the source for another target; used here, by the source, with some conditions changed.] as §1

Setting [1] is: foliage treatment after growing for 20 days.
The mark [2] stands for this setting: bean seeds immersed 1 hr at 100 ppm, after 60 days.

In the case of `CCCCCCCCCCCCCCCCCCCCCCCCCCCCCCO` [tricontanol], the Increase of yield in the experiment with cabbage is 83%; in the experiment on rice, 14.8-41%; in the experiment with radish it was 108.4%.

Regarding “Polyprenol of Formula I, in which m is 18 [Example 4]”, in the experiment on red pepper (setting [1]), the Early plant length was found to be 70.5 cm, the Flower number amounted to 8.4 and the Trunk diameter is recorded as 8.5 mm. In addition, in the experiment on red pepper (vs control), the “Rate of increase of early plant length” value amounted to 11.7%, the “Rate of increase of flower number” value worked out at 10.5% and the “Rate of increase of trunk diameter” value turned out to be 1.2%. For the same compound, in the experiment with bean (setting [2]), the Early plant height amounted to 68.2 cm, the No. of pods was determined as 35.4 and the Rate of emergence was 55.7%. Besides, in the experiment with bean (bean, 100 ppm, summary statement), the “Increase of all factors tested (early plant height, rate of emergence, pod number)” value is on record as “more than 7%”. For the same compound, in the experiment with bean (bean, 100 ppm, vs control), the “Rate of increase of No. of pods” value was 17.2%, the “Rate of increase of early plant height” value was determined as 7.74% and the “Rate of increase of rate of emergence” value came to 7.32%.

With Polyprenyl Methyl Ether [Example 6-4], in the experiment with corn, the Early plant height is 110.1 cm, the Fresh weight is on record as 60.3 g, the Tiller number stood at 8.7 and the “Rate of increase of early plant height” value is recorded as 1.3%. For the same compound, in the experiment with corn, the “Rate of increase of fresh weight” value was found to be 15.9% and the “Rate of increase of tiller number” value is 6.0%.

In the case of Polyprenyl Methyl Sulfide [Example 6-5], in the experiment on corn, the Early plant height worked out at 108.9 cm, the Fresh weight is on record as 65.7 g, the Tiller number came to 8.5 and the “Rate of increase of early plant height” value stood at 0.2%. Besides, in the experiment on corn, the “Rate of increase of fresh weight” value is 26.3% and the “Rate of increase of tiller number” value is given as 3.6%.

As for Polyprenyl Stearate [Example 6-3], in the experiment on corn, the Early plant height stood at 109.1 cm, the Fresh weight is 68.0 g, the Tiller number is 8.6 and the “Rate of increase of early plant height” value was 0.4%. In addition, in the experiment with corn, the “Rate of increase of fresh weight” value is 30.7% and the “Rate of increase of tiller number” value was 4.8%.

“polyprenyl ethyl carbonate [Example 6-6]”: in the experiment on corn, the Early plant height is given as 109.6 cm, the Fresh weight is 61.3 g, the Tiller number was 8.4 and the “Rate of increase of early plant height” value came out at 0.9%. Besides, in the experiment with corn, the “Rate of increase of fresh weight” value worked out at 17.8% and the “Rate of increase of tiller number” value is listed as 2.4%.

On to “polyprepyl dimethyl sulfonium bromide [Example 6-7]”, for which, in the experiment with corn, the Early plant height is listed as 109.5 cm, the Fresh weight is on record as 70.1 g, the Tiller number came out at 9.2 and the “Rate of increase of early plant height” value came to 0.8%. In the experiment on corn, the “Rate of increase of fresh weight” value is on record as 34.8% and the “Rate of increase of tiller number” value came out at 12.1%.

The values above are taken from US20040116297A1, “Use of polyprenol and its derivatives for facilitating growth of plants” (priority 2001, published 2004).
